This is an account of results in paper PMC11199504, “New hemisynthetic derivatives of sphaeropsidin phytotoxins triggering severe endoplasmic reticulum swelling in cancer cells” (Scientific Reports, 2024).

Each structure is given as a SMILES string. Like-named read-outs stand apart in the source and are kept apart here.

One assay addresses T1, human TopIIa (Homo sapiens, UniProt P11388).
T1 construct: purchased TopoGen (Port Orange, FL, USA)
Briefly: Cell-free decatenation assay. The class given is biochemical. The method, then: The topoisomerase (Top) activity assay kit, including kinetoplast DNA (kDNA and recombinant human TopIIa enzyme, was obtained from TopoGen (Port Orange, FL, USA), agarose from PeqLab (Erlangen, Germany), 50 × TAE buffer from Roth (Karlsruhe, Germany) and ethidium bromide solution (10 mg/mL) from Sigma-Aldrich (Taufkirchen, Germany). Decatenation assays were performed as described previously[62] with slight modifications according to the manufacturer’s protocol. 100 µM of the recently described dual topoisomerase poison P8-D6 served as a positive control, and 5% DMSO as a solvent control. Briefly, the compounds were dissolved in DMSO and diluted to 20× the concentration to be tested. 1 µL of the resulting stock solutions were mixed with 18 µL of a buffer containing 200 ng kDNA and 1 mM ATP. Subsequently, 1 µL of a 1u/µL dilution of TopIIa enzyme was added and incubated at 37 °C for 30 min. Afterwards, the reaction was stopped by addition of Stop buffer, and electrophoresis was carried out on a 1% agarose gel in TAE buffer. The gel was stained with 0.5 µg/mL ethidium bromide, washed with water, and fluorescence images were captured with the LAS4000 system (Fujifilm, Duesseldorf, Germany). All steps were carried out on ice.

A further assay deals with KB-C-1. Briefly: MTT assay, KB-C-1 (ABCB1-overexpressing). It counts as cell-based. The conditions noted are these: KBC-1, 72 h, read-out: IC50 determined by MTT assays, KB-C-1. The source says: (§1) Cancer cell lines were obtained from either the European Collection of Cell Cultures (ECACC; Salisbury, UK) or the American Type Culture Collection (ATCC; Manassas, VA). The two glioma cell lines were the U373 (ECACC code 08061901) and Hs683 (ATCC HTB-138) cell lines. The carcinoma cell lines were the A549 non-small cell carcinoma cell line (ATCC code CCL 185) and the MCF-7 mammary breast carcinoma cell line (ATCC code HTB-22). The melanoma cell lines were the mouse B16F10 cells (ATCC code CRL-6475) and the human SKMEL-28 cells (ATCC code HTB-72). The ovarian cancer cell line A2780 and its cisplatin-resistant subline A2780cis were obtained from Sigma-Aldrich (St. Louis, MO, USA). Colon cancer HCT116 cells were obtained from ATCC (CCL-247) and the oxaliplatin-resistant subline HCT116/OxR established in the W. Berger lab[59]. The HeLa cell derivative KB-3-1 and the colchicine-selected, highly ABCB1-overexpressing subline KB-C-1 were generously donated by Dr. D. W. Shen, Bethesda, MD. RKOp53wt colon cancer cells together with the RKOp53KO (homozygous knock-out) subline[60] were generously provided by Dr. Vogelstein from John Hopkins University, Baltimore. The correct origin of all cell models was confirmed by STR during performance of the experiments. All cell lines were cultured in RPMI1640 culture medium supplemented with 10% heat-inactivated fetal bovine serum, 2% L-glutamine (0.6 mg/mL), 2% penicillin/streptomycin (200 IU/mL and 200 μg/mL) and 0.1 mg/mL gentamicin.
(§2) The MTT (3-(4,5-dimethylthiazol-2-yl)-2,5-diphenyl tetrazolium bromide) colorimetric assay has been conducted as described previously. Briefly, cells were seeded 24 h before their treatment with each compound for a period of 72 h. The concentrations tested ranged from 10 nM to 100 µM. Each assay was conducted in sextuplicates. The number of independent experiments is mentioned in the legend of the tables.
(§3) SI Table 1: IC50 determined by MTT assays. Mean concentration (± standard deviation) in µM required to
(§4) reduce the viability of cells by 50% after a 72 h treatment relative to the control.
(§5) Parental sensitive models Drug-resistant models
(In general: Formazan colour is commonly taken as a measure of viable cells.)

The test system of assay [1] is A549, SKMEL-28, U373, MCF7, Hs683, B16F10. Description: MTT colorimetric assay, mean of the six cell lines. It counts as cell-based. The following applies: for IC50: mean over the six cell lines, 72 h treatment, read-out: IC50 determined by MTT assays, Mean. The gist of the method:
(§6)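 Cell lines cultured in RPMI1640 with 10% heat-inactivated FBS. Cells seeded 24 h before 72 h compound exposure over 10 nM to 100 µM, sextuplicate wells. Viability read by MTT colorimetric assay.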

The subject of a further assay is A2780R. Briefly: MTT assay, A2780R (cisplatin-resistant). It counts as cell-based. The following applies: 72 h, read-out: IC50 determined by MTT assays, A2780R.
From the text: as §1, §2, §3, §4, §5

The subject of a further assay is Drug-resistant models. Briefly: MTT assay, mean of drug-resistant models. The class given is cell-based. The conditions noted are these: 72 h, read-out: IC50 determined by MTT assays, mean of drug-resistant models.
From the text: as §1, §2, §3, §4, §5

A further assay deals with U373. Description: MTT colorimetric assay, U373. It counts as cell-based. The following applies: Homo sapiens, U373 MG; 72 h treatment; mean ± SEM; resistant to apoptosis; read-out: IC50 determined by MTT assays, U373. The gist of the method:
as §6

For a further assay, the system named is A549. Briefly: MTT colorimetric assay, A549. The class given is cell-based. The conditions noted are these: Homo sapiens, 72 h treatment, mean ± SEM of six replicates of one experiment (1: 7, 13: 6 independent experiments), resistant to apoptosis, read-out: IC50 determined by MTT assays, A549. The gist of the method: as §6
For another assay, the system named is A2780. Briefly: MTT assay, A2780 (parental sensitive). The following applies: Homo sapiens, A2780, 72 h, read-out: IC50 determined by MTT assays, A2780. The class given is cell-based.
From the text: as §1, §2, §3, §4, §5

For a further assay, the system named is Hct116/OxR. Description: MTT assay, Hct116/OxR (oxaliplatin-resistant). It counts as cell-based. The conditions noted are these: Homo sapiens, HCT-116, 72 h, read-out: IC50 determined by MTT assays, Hct116/OxR.
From the text: as §1, §2, §3, §4, §5

In a further assay the test system is MCF7. Description: MTT colorimetric assay, MCF7. The class given is cell-based. The following applies: Homo sapiens, 72 h treatment, mean ± SEM, sensitive to apoptosis, read-out: IC50 determined by MTT assays, MCF7. The method in brief: as §6
The test system of a further assay is RKO/P53wt. Description: MTT assay, RKO/P53wt (parental sensitive). It counts as cell-based. The conditions noted are these: 72 h, read-out: IC50 determined by MTT assays, RKO/P53wt.
From the text: as §1, §2, §3, §4, §5

Assay [2] deals with Parental sensitive models. Briefly: MTT assay, mean of parental sensitive models. The class given is cell-based. The following applies: 72 h, read-out: IC50 determined by MTT assays, mean of parental sensitive models.
From the text: as §1, §2, §3, §4, §5

Another assay has as its system Hct116. Description: MTT assay, Hct116 (parental sensitive). The class given is cell-based. The following applies: Homo sapiens, HCT-116, 72 h, read-out: IC50 determined by MTT assays, Hct116.
From the text: as §1, §2, §3, §4, §5

The next assay has as its system B16F10. Briefly: MTT colorimetric assay, B16F10. It counts as cell-based. The following applies: Mus musculus, B16-F10; 72 h treatment; mean ± SEM; sensitive to apoptosis; read-out: IC50 determined by MTT assays, B16F10. The method in brief: as §6
In the next assay the test system is RKO/p53ko. Description: MTT assay, RKO/p53ko. It counts as cell-based. The following applies: 72 h, read-out: IC50 determined by MTT assays, RKO/p53ko.
From the text: as §1, §2, §3, §4, §5

For a further assay, the system named is KB-3-1. Description: MTT assay, KB-3-1 (parental sensitive). It counts as cell-based. The conditions noted are these: Homo sapiens, KB 3-1, 72 h, read-out: IC50 determined by MTT assays, KB-3-1.
From the text: as §1, §2, §3, §4, §5

T1 sequence (P11388 whole entry): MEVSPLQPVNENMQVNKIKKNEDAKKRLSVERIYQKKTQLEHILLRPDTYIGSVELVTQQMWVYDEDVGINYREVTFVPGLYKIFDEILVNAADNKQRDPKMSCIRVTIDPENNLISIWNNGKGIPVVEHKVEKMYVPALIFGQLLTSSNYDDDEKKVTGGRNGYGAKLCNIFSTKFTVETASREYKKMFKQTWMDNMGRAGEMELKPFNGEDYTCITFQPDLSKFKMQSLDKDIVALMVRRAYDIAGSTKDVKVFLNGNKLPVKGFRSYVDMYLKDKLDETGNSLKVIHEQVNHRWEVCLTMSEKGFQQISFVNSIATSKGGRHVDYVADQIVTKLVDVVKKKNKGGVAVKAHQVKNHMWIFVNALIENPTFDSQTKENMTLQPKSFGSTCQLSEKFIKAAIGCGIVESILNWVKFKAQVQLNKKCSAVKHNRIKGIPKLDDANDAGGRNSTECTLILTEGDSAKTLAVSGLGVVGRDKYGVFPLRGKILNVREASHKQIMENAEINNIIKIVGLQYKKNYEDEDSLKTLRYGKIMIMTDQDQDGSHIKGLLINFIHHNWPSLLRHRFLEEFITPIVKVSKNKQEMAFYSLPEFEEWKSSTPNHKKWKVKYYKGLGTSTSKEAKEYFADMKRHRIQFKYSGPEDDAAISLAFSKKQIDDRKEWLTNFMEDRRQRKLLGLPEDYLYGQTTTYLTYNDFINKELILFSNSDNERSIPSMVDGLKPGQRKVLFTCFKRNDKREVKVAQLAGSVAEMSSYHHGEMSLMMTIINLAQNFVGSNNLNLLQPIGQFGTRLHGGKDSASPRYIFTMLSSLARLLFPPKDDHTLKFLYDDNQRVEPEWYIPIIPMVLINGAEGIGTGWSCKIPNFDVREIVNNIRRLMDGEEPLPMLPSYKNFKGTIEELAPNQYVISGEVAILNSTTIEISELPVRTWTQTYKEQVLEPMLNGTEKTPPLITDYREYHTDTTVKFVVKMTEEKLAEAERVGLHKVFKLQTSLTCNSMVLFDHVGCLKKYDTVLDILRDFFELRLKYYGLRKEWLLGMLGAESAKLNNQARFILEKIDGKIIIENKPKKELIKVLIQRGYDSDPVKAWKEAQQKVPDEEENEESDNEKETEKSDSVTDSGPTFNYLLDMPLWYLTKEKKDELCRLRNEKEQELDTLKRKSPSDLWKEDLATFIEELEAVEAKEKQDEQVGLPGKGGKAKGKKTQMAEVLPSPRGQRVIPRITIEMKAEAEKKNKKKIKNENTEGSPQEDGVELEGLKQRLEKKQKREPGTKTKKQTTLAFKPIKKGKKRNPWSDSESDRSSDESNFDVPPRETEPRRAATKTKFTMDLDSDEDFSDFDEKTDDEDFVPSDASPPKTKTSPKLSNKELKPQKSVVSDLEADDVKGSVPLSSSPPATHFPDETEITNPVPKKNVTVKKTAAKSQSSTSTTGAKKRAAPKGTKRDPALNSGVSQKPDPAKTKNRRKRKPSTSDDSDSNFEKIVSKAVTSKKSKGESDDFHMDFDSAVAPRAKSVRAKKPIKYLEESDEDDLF

Regarding `CC1(C=CCCCc2ccc3ccc4cccc5ccc2c3c45)C=C2C(=O)C3(O)OC(=O)C4(CCCC(C)(C)C34)C2(O)CC1` (stereo not drawn) [Compound 13], the “concentration from which TopIIa inhibition trend was observed” value on human TopIIa was not below 1 µM. The “concentration significantly different from the solvent control (TopIIa inhibition)” value on human TopIIa is not below 1 µM. In addition, the IC50 in the assay with KB-C-1 worked out at 3200 ± 600 nM; in assay [1] (72 h) it was 300 nM; in assay [1], 370 ± 40 nM; in the assay on A2780R, 1600 ± 90 nM; in the assay with Drug-resistant models, 2000 nM; in the assay on U373, 570 ± 80 nM. In addition, the IC50 came out at 380 ± 30 nM in the assay with A549; 1600 ± 20 nM in the assay on A2780; 800 ± 50 nM in the assay on Hct116/OxR; 300 ± 20 nM in the assay on MCF7; 1100 nM in the assay with RKO/P53wt; 1000 nM in assay [2]. Further, the IC50 is 1000 ± 100 nM with Hct116, 290 ± 10 nM in the assay on B16F10, 1500 ± 50 nM with RKO/p53ko and 1900 ± 50 nM with KB-3-1. Moreover, in assay [1] (cancer cell panel, MTT), the “IC50 fold lower than compound 1” value is given as 5–10 times.

With `CC1(C=CCCCc2ccc3ccc4cccc5ccc2c3c45)C=C2C(O)C3(O)OC(=O)C4(CCCC(C)(C)C34)C2(O)CC1` (stereo not drawn) [Compound 16], the “concentration from which TopIIa inhibition trend was observed” value on human TopIIa is recorded as not below 1 µM. For the same molecule, the IC50 in the assay on KB-C-1 was determined as 15200 ± 1300 nM; in assay [1] (72 h), 6860 ± 530 nM; with A2780R it was 8300 ± 300 nM; with Drug-resistant models, 9000 nM; in the assay on U373 it was 8880 ± 190 nM; in the assay on A549, 6610 ± 80 nM. The IC50 in the assay on A2780 was determined as 7700 ± 900 nM; with Hct116/OxR it was 6600 ± 1300 nM; with MCF7, 5980 ± 190 nM; with RKO/P53wt, 5600 ± 200 nM; in [2], 8000 nM; in the assay with Hct116, 7100 ± 200 nM. The IC50 in the assay on B16F10 was determined as 5110 ± 420 nM; with RKO/p53ko, 6900 ± 400 nM; in the assay with KB-3-1 it was 13800 ± 1400 nM.

In general, inhibition refers to how much of the control response was suppressed. In the case of `C=C[C@]1(C)C=C2C(=O)[C@@]3(O)OC(=O)[C@@]4(CCCC(C)(C)[C@H]34)[C@@]2(O)CC1` [Compound 1, sphaeropsidin A, reference compound], the inhibition at 500 µM at human TopIIa (at 500 µM, read-out: TopoIIa inhibition) was approximately 50%. Besides, the IC50 amounted to 8100 ± 700 nM with KB-C-1; 2070 ± 150 nM in assay [1] (72 h); 2400 ± 100 nM in the assay with A2780R; 4000 nM with Drug-resistant models; 2130 ± 170 nM in the assay with U373; 1710 ± 260 nM in the assay on A549. Besides, the IC50 in the assay with A2780 was 2400 ± 500 nM; in the assay on Hct116/OxR, 1700 ± 400 nM; in the assay on MCF7, 2410 ± 350 nM; with RKO/P53wt, 1900 ± 300 nM; in assay [2], 3000 nM; in the assay with Hct116 it was 3400 ± 500 nM. In addition, the IC50 was found to be 1550 ± 270 nM in the assay on B16F10, 1500 ± 100 nM in the assay with RKO/p53ko and 5400 ± 1000 nM in the assay on KB-3-1.
